Experimental data: publication PMC9609356, “Novel O-Methylglucoside Derivatives of Flavanone in Interaction with Model Membrane and Transferrin” (Membranes, 2022)
Where two headings read alike, the source gives them in different places. Blank lines part the entries; values can stand above or below the molecule they belong to.

Legend:
Test in all cases: intrinsic tryptophan fluorescence quenching titration (static quenching; Ka, n = […])
Assay type in all cases: binding
Details in all cases: read-out: Ka (M^-1) × 10^4 (converted)
[1] = target: T1, human holo-transferrin (HTF) (Homo sapiens, UniProt P02787)
T1 construct: gene TF
T1 sequence (P02787 20-698): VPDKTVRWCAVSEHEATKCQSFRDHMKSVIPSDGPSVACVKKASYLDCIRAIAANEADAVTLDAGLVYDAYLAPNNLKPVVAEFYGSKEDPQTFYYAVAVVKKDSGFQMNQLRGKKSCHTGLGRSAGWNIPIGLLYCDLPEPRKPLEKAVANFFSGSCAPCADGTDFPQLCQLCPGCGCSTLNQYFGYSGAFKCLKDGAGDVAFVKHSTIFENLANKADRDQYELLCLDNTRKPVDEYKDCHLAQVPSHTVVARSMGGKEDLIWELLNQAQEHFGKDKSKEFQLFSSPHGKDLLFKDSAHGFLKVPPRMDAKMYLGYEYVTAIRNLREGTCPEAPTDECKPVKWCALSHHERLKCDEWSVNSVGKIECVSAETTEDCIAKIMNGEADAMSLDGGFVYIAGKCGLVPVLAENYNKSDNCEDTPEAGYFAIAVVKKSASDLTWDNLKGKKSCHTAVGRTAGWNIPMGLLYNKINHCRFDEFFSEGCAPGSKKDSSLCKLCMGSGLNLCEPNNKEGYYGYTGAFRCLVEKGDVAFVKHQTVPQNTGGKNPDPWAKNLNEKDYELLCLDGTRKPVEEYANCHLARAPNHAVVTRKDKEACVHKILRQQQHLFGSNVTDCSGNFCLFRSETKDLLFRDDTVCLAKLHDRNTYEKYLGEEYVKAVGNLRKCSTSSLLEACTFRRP

[2] = target: T1, human holo-transferrin (HTF); remark: listed apart in the source
[3] = target: T1, human holo-transferrin (HTF); remark: listed apart in the source

Kd [1]: 89.3 µM
Compound: CO[C@H]1[C@H](O)[C@@H](O)[C@H](Oc2cc(C3CC(=O)c4cc(C)ccc4O3)ccc2O)O[C@@H]1CO (stereo partly drawn) [MFA, 4′-hydroxy-6-methylflavanone 3′-O-β-D-(4′’-O-methyl)-glucopyranoside]

Kd [2]: 68 µM
Compound: CO[C@H]1[C@H](O)[C@@H](O)[C@H](Oc2cc(C3CC(=O)c4cc(CO)ccc4O3)ccc2O)O[C@@H]1CO (stereo partly drawn) [MFB, 4′-hydroxy-6-hydroxymethylflavanone 3′-O-β-D-(4′’-O-methyl)-glucopyranoside]

Kd [3]: 35.8 µM
Compound: CO[C@H]1[C@H](O)[C@@H](O)[C@H](OCc2ccc3c(c2)C(=O)CC(c2ccc(O)cc2)O3)O[C@@H]1CO (stereo partly drawn) [MFC, 4′-hydroxyflavanone 6-methylene-O-β-D-(4′’-O-methyl)-glucopyranoside]
